By inhibition is commonly meant the drop in the measured response relative to a control, in per cent. For orientation: IC50 means the concentration that inhibits the measured activity by half. As a reminder, the AUC is concentration integrated over time. In general, Cmax refers to the highest concentration seen after dosing. One may read the EC50 as the concentration at which the effect is half-maximal. High values mean lower potency in that assay, low ones higher potency in that assay.

The test system of series [1] is platelet aggregation in whole human blood. In words: Collagen-induced platelet aggregation in whole human blood. The format is cell-based.
Series [2] concerns the target HRH1 (histamine receptor H1) (Homo sapiens, UniProt P35367). The series can be described thus: biochemical. It counts as binding.
Another series concerns the target T1, PTGS1 (ovine COX-1) (Ovis aries, UniProt P05979).
T1 sequence (P05979 25-600): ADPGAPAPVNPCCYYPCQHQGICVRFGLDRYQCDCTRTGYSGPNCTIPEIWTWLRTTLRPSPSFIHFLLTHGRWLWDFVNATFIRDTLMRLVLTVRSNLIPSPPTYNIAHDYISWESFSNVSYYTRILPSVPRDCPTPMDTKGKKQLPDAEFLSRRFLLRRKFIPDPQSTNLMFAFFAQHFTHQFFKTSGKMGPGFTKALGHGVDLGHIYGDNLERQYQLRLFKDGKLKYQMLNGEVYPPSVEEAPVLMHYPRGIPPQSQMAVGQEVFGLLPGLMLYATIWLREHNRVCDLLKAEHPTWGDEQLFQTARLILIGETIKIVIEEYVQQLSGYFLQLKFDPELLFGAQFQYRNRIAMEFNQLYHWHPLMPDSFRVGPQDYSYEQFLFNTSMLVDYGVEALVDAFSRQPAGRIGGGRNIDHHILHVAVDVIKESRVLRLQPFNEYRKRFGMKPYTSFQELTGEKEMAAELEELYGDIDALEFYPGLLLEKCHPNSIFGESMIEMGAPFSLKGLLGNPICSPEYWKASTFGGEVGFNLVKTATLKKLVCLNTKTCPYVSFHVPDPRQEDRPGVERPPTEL
In words: biochemical.

For series [3] the following is noted: human plasma, ref Thompson Reuters Integrity, cited from earlier work; for AUC [μM*h] (median): median of reported values.
For series [4], the target named is T2, PGR (progesterone receptor) (Homo sapiens, UniProt P06401).
T2 sequence (P06401 679-913 limits assumed): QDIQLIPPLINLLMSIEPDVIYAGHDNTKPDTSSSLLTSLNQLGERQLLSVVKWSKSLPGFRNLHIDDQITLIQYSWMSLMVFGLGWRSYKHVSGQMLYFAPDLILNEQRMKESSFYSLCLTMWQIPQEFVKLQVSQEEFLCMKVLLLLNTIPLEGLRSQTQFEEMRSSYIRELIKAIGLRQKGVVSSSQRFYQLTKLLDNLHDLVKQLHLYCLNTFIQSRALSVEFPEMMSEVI
In words: biochemical.

Series [5] concerns the target OPRM1 (opioid receptor, mu 1) (Homo sapiens, UniProt P35372). In words: OPRM1 functional agonist assay. The format is cell-based. Conditions: Activity (μM) (median), target OPRM1; agonist per Figure S1E.
Where [6] appears, read: Homo sapiens, Platelet, read-out: inhibition of platelet aggregation.

Values joined by “and” are separate entries in the source; they are usually repeats but may differ in a detail not shown here. Identical values can stand only once. Like-named read-outs stand apart in the source and are kept apart here.

HRH1 (histamine receptor H1), sequence (P35367 whole entry): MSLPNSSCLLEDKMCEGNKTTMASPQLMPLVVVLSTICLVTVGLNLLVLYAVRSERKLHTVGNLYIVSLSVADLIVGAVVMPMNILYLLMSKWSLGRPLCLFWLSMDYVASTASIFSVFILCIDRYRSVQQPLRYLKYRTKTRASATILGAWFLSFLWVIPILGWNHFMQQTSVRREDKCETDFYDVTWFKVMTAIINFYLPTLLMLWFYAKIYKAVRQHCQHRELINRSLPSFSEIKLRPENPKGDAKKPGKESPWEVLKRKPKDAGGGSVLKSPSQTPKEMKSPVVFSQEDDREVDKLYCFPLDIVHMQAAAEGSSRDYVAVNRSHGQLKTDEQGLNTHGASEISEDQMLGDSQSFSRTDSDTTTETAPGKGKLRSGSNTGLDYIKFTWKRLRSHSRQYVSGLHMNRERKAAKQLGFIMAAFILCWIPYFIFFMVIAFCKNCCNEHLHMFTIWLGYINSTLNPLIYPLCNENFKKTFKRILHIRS
OPRM1 (opioid receptor, mu 1), sequence (P35372 whole entry): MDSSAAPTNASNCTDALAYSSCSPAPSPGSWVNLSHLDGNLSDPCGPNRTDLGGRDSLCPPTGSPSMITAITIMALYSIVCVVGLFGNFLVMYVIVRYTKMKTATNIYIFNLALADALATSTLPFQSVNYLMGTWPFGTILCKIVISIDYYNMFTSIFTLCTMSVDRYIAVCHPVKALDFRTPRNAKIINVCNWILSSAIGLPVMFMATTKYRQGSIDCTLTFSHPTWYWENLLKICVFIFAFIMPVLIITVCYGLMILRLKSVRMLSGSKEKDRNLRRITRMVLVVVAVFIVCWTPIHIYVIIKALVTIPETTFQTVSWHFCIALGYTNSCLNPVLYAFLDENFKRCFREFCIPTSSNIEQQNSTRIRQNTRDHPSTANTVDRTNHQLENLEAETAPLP

`CC(=O)Oc1ccccc1C(=O)O` [Acetylsalicylic acid]: in series [1] (setting [6]), the inhibition at 250 µM is 42 to 48%.

In series [2] (IC50 [μM]), `CCN(CC)CCCN(c1ccccc1)C1Cc2ccccc2C1` [Aprindine] yielded an IC50 of 0.78 µM.

As for `COc1ccc(C(Cl)=C(c2ccc(OC)cc2)c2ccc(OC)cc2)cc1` [Chlorotrianisene], in series [1] (0.5, 5 and 50 μM, collagen 1 μg/mL, compared with indomethacin), the “potency of inhibition of platelet aggregation in whole blood” value was “almost indistinguishable from that of indomethacin”. This compound also gave an IC50 at PTGS1 (ovine COX-1) of 160 nM.

As to `CN(C)CCC=C1c2ccccc2C=Cc2ccccc21` [Cyclobenzaprine], the IC50 in series [2] (Activity (μM) (median)) is 0.02 µM; in series [2] (binding to histamine H1 receptor (HRH1), IC50), 0.021 µM and 0.02 µM. For the same compound, the “AUC [μM*h] (median)” value in series [3] was 0.69 µM·h. Moreover, the “AUC” value in series [3] (range of reported values) is 0.16 to 4.10 µM·h. Moreover, the Cmax is 10 to 130 nM in series [3] (range of reported values) and 61 nM in series [3] (read-out: median Cmax in plasma).

Turning to `CN1CCN(C2=Nc3ccccc3Oc3ccc(Cl)cc32)CC1` [Loxapine], in series [3], the “AUC [μM*h] (median)” value was 0.21 µM·h. In series [3] (range of reported values), the “AUC” value was 0.03 to 0.43 µM·h and the Cmax is 20 to 410 nM.

In the case of `C[C@H]1C[C@@H]2[C@H]([C@@H](O)C[C@@]3(C)[C@H]2CC[C@]3(O)C(=O)CO)[C@@]2(C)C=CC(=O)C=C12` [Methylprednisolone], the EC50 in series [4] was 1300 nM. The “AUC [μM*h] (median)” value in series [3] is 1.28 µM·h. Also, in series [3] (range of reported values), the “AUC” value is 0.09 to 10.76 µM·h and the Cmax is 60 to 2110 nM.

In turn, `CC(Cc1ccccc1)NCCC(c1ccccc1)c1ccccc1` (centres unmarked) [Prenylamine] registered a concentration for half-maximal inhibition (IC50) in series [2] (Activity (μM) (median)) of 7.87 µM. In series [2] (IC50 [μM]), this compound had an IC50 of 7.9 µM. Moreover, in series [3] (range of reported values), the “AUC” value was 0.12 µM·h and the Cmax was 1200 nM.

`CNC(=C[N+](=O)[O-])NCCSCc1ccc(CN(C)C)o1` [Ranitidine]: the “AUC [μM*h] (median)” value in series [3] is 9.67 µM·h. For the same compound, in series [3] (range of reported values), the “AUC” value was 5.66 to 121.90 µM·h and the Cmax was 1140 to 9110 nM.

`CC(NCCc1ccc(O)cc1)C(O)c1ccc(O)cc1` (centres unmarked) [Ritodrine] registered an EC50 in series [5] of 9.18 µM. In addition, in series [3], the “AUC [μM*h] (median)” value was 0.11 µM·h. Also, in series [3] (range of reported values), the “AUC” value is 0.03 to 0.32 µM·h and the Cmax is 10 to 150 nM.

Regarding `COc1ccc2c(c1)c(CC(=O)O)c(C)n2C(=O)c1ccc(Cl)cc1` [indomethacin], the inhibition at 50 µM in series [1] (setting [6]) was 50%.
